According to US7863335B2, “Non-antibiotic intervention of chlamydial infection” (The University of Medicine and Dentistry of New Jersey, priority 2004, dated 2011):
Read-outs that look alike come from different tables or passages of the source.

Key:
[1] = system: L2; test: Dot blot analysis of MOMP, L2 growth in HeLa cells; type: cell-based, Chlamydia trachomatis
[2] = system: HeLa cells; test: Cytotoxicity judged by cellular morphology of HeLa cells; type: cell-based, Human
[3] = system: HeLa cells; test: DNA synthesis ([methyl-3H]thymidine incorporation) in HeLa cells; type: cell-based, Human
Description: (§1) The lack of cytotoxic activity in GM6001 was further supported by measuring DNA synthesis. Subconfluent cells grown in 24 well plates were fed with medium (0.5 ml/well) containing indicated concentrations of GM6001 for 40 hours. 2 μl of [methyl-3H]thymidine (specific activity: 20 Ci/mmole, Moravek Biochemical, Brea, Calif.) was added into the culture and incubated for 2 hours. The amount of thymidine incorporated into DNA was determined as we previously described (3).

[4] = system: A549 cells; test: DNA synthesis ([methyl-3H]thymidine incorporation) in A549 cells; type: cell-based, Human
Description: as §1

[5] = system: strain UW-3/Cx of serovar D (biovar trachomatis); test: Chlamydial lipopolysacharide immunostaining of inclusion formation, serovar D in HeLa cells; type: cell-based, Chlamydia trachomatis
[6] = system: L2 (biovar LGV); test: Dot blot analysis of MOMP, L2 growth in A549 cells; type: cell-based, Chlamydia trachomatis; details: 40 hours after infection, 1 μg/ml cycloheximide
Description: Infection of A549 cells and inhibitor treatment were carried out as described above. 40 hours after infection, cells were lysed in 200 μl of H2O, a 50 μl sample of the resulting EB/RB extract was blotted onto Zeta Probe membrane (Bio-Rad), and sequentially reacted with the L2 MOMP antibody described above, and horseradish peroxidase-conjugated rabbit anti-mouse IgG.

[7] = system: L2; test: Pretreatment of host HeLa cells or EBs with GM6001, immunostaining of L2 growth; type: cell-based, Chlamydia trachomatis
Description: To address whether suppression of chlamydial growth resulted from inhibition of host or bacterial enzymes, we determined the effect of pretreatment of EB and host cells with a hydroxamate on chlamydial growth. HeLa cells were cultured for 2 h with medium containing 20 °μM GM6001 and washed 3 times with medium before they were infected with a regular EB stock. Likewise, an EB stock was also incubated with GM6001, washed, and added to untreated HeLa cells. As control, GM6001 (final concentration: 20 μM) was added into and maintained in the culture medium after the attachment/entry period.

[8] = system: Salmonella Enterica Serovar Typhimurium; test: Growth of S. enterica as free-living organism in liquid medium (OD600); type: cell-based
[9] = system: Salmonella Enterica Serovar Typhimurium; test: Intracellular growth of S. enterica in HeLa cells (colony-forming units); type: cell-based; details: 20 μM, 1.5 and 6 h, 50 μg/ml gentamycin
Description: To assess whether its intracellular growth is affected by the inhibitor, HeLa cells were infected with a fresh culture of S. enterica grown to stationary phase as previously described (16). After washes to remove free bacteria, the cells were cultured with medium containing 50 μg/ml gentamycin (to kill any residual free bacteria) plus or minus 20 μM GM6001 for 1.5 and 6 h. Gentamycin was then removed by washes. Intracellular bacteria were released by 0.1% Triton X-100, serially diluted and plated onto LB agar plates. After overnight incubation at 37° C., colony-forming units were scored.

[10] = system: L. delbrueckii (ATCC 12315); test: Growth of L. delbrueckii in liquid culture (OD600); type: cell-based, Lactobacillus delbrueckii; details: 20 μM, hourly up to 5 h postinoculation
Description: (§2) An E. coli MG1655 colony was inoculated into 10 ml LB broth, which was then divided into 2 ml aliquots. After overnight culture, OD600 measurements were taken. An overnight L. delbrueckii (ATCC 12315) culture was diluted 1:100, and cultured in the presence or absence of 20 μM of GM 6001. OD600 values were measured hourly up to 5 h postinoculation.

[11] = system: MoPn (biovar mouse); test: Chlamydial DNA synthesis of MoPn (biovar mouse); type: cell-based, Chlamydia trachomatis; details: dose response
Description: We next tested whether GM6001 was also effective against the remaining two biovars of C. trachomatis. […] The effect of GM6001 on biovar mouse was determined by measuring chlamydial DNA synthesis with procedures that we previously detailed (1, 3).

[12] = system: strain 434/bu of serovar L2 (L2, biovar LGV); test: MOMP immunofluorescence of inclusion formation in L2-infected HeLa cells; type: cell-based, Chlamydia trachomatis
Description: Human cervical carcinoma HeLa cells grown on coverslips were exposed to an EB stock of strain 434/bu of serovar L2 (L2, biovar LGV) for 2 hours, washed to remove free EBs, and cultured in medium containing indicated concentrations of GM6001 plus 1 μg/ml cycloheximide, an inhibitor of eukaryotic protein synthesis which is commonly used to facilitate chlamydial growth. 40 hours later, cells were fixed with methanol, and reacted for 1 hour with a monoclonal antibody against the major outer membrane protein (MOMP) of L2. After three washes with PBS, coverslips were reacted with fluorescein isothiocyanate-conjugated goat anti-mouse IgG (Sigma, St. Louis, Mo.) for 30 min. After additional washes, coverslips were mounted onto glass slides and viewed with a Nikon Eclypse E1000 fluorescent microscope.

[13] = system: L2 (biovar LGV); test: Live images (light microscope) of inclusion formation in L2-infected HeLa cells; type: cell-based, Chlamydia trachomatis; details: in both the presence and absence of cycloheximide
Source text: The inhibition of L2 growth by GM6001 could be viewed directly under a light microscope without immunostaining. Shown in FIG. 1C are images obtained from live cultures.

[14] = system: Chlamydia; test: Titration of infectious EBs produced by infected HeLa cells; type: cell-based, Chlamydia trachomatis
Description: Inhibition of chlamydial growth was obtained when GM6001 and TAPI-0 was added to cultures at the end of the two hour attachment/entry period (FIGS. 1-3), a point where free unbound EBs had been removed by extensive washes. The entry-independent inhibition was also seen by titrating infectious EBs produced by infected HeLa cells (FIG. 6). […] At this point, EBs have already completed the entry phase and have differentiated into RBs in inclusions. Even when GM6001 treatment was started 24 h after infection, a point where the number of RBs peaks during the chlamydial developmental cycle, a 99% reduction in EB production was observed (FIG. 6).

[15] = system: E. coli MG1655; test: Growth of E. coli in LB broth (OD600); type: cell-based, Escherichia coli; details: overnight culture, concentrations indicated in FIG. 4A
Description: as §2

CNC(=O)[C@H](Cc1c[nH]c2ccccc12)NC(=O)[C@H](CC(C)C)NC(=O)OC(C)(C)C [GM6001 Negative Control, N-t-butoxycarbonyl-L-leucyl-L-tryptophan methylamide]
chlamydial (L2) growth, MOMP dot blot [1]: no detectable effect
adverse effect on morphology of HeLa cells ([2]; data not shown): no adverse effect
DNA synthesis (thymidine incorporated into DNA) [3]: no adverse effect

CNC(=O)[C@H](Cc1c[nH]c2ccccc12)NC(=O)[C@@H](CC(=O)NO)CC(C)C [GM6001]
DNA synthesis (thymidine incorporated into DNA) [4]: did not exhibit any inhibitory effect
effect on cycloheximide-induced inhibition of DNA synthesis [4]: no synergistic or additive effect
inclusion formation by serovar D [5]: efficiently suppressed inclusion formation
MOMP signal (L2 growth) [6]: no signal was detected
chlamydial infection after pretreatment of EB stock ([7]; EB stock incubated with GM6001, washed, added to untreated HeLa cells): completely ineffective
chlamydial infection after pretreatment of host HeLa cells ([7]; HeLa cells cultured 2 h with 20 μM GM6001, washed 3 times before infection): completely ineffective
growth of S. enterica in liquid medium [8]: had no effect
growth of S. enterica inside HeLa cells (colony-forming units) [9]: did not inhibit
growth of Lactobacillus delbrueckii (OD600) [10]: did not show any effects
chlamydial (L2) growth, MOMP dot blot [1]: no MOMP signals
cytotoxic effects based on morphology ([2]; uninfected or L2-infected HeLa cells): no apparent cytotoxic effects
DNA synthesis (thymidine incorporated into DNA) [3]: did not exhibit any inhibitory effect
effect on cycloheximide-induced inhibition of DNA synthesis [3]: no synergistic or additive effect
inhibition of MoPn growth (chlamydial DNA synthesis) [11]: dose-response curve of GM6001 inhibition of MoPn growth was obtained
number of inclusions (L2 inclusion formation) ([12]; increasing concentrations of GM6001 plus 1 μg/ml cycloheximide, 40 hours): number of inclusions declined progressively
inhibition of L2 growth / inclusion formation in live cultures [13]: effective against chlamydial infection
inhibition at 20 µM ([14]; Chlamydia, HeLa, 20 μM, added at the end of attachment/entry period, read-out: inhibition of EB production): > 100%
inhibition of EB production ([14]; added 8 h after infection): comparable inhibitory activity
reduction in EB production ([14]; treatment started 24 h after infection): 99%

CC(C)C[C@H](CC(=O)NO)C(=O)N[C@@H](Cc1ccc2ccccc2c1)C(=O)N[C@@H](C)C(N)=O [TAPI-0, N-(R)-[2-(Hydroxyaminocarbonyl)methyl]-4-methylpentanoyl-L-naphthylalanyl-L-alanine amide]
growth of E. coli (OD600) [15]: did not show any effects
inhibition of L2 infection (MOMP immunofluorescence) ([12]; at both 7.5 and 15 μM): strongly inhibited

C[C@@H]1C[C@@H]([C@H](O)CC2CC(=O)NC(=O)C2)C(=O)[C@@H](C)C1 [cycloheximide]
DNA synthesis (thymidine incorporated into DNA) ([4]; uninfected A549 cells, 40 hours treatment): effectively inhibited DNA synthesis activity
DNA synthesis (thymidine incorporated into DNA) ([3]; uninfected HeLa cells, 40 hours treatment): effectively inhibited DNA synthesis activity
